As usually defined, the IC50 is the point on the concentration scale where inhibition reaches its midpoint.

Molecules are shown by their SMILES.

Nine molecules from ChEMBL document CHEMBL1142466, “Itk kinase inhibitors: initial efforts to improve the metabolical stability and the cell activity of the benzimidazole lead” (Bioorg Med Chem Lett, 2008) can be followed below.

The target in one data set is Insulin receptor (Homo sapiens, UniProt P06213). The data set can be described thus: Inhibition of IRK.
Sequence of Insulin receptor (P06213 28-758 limits assumed): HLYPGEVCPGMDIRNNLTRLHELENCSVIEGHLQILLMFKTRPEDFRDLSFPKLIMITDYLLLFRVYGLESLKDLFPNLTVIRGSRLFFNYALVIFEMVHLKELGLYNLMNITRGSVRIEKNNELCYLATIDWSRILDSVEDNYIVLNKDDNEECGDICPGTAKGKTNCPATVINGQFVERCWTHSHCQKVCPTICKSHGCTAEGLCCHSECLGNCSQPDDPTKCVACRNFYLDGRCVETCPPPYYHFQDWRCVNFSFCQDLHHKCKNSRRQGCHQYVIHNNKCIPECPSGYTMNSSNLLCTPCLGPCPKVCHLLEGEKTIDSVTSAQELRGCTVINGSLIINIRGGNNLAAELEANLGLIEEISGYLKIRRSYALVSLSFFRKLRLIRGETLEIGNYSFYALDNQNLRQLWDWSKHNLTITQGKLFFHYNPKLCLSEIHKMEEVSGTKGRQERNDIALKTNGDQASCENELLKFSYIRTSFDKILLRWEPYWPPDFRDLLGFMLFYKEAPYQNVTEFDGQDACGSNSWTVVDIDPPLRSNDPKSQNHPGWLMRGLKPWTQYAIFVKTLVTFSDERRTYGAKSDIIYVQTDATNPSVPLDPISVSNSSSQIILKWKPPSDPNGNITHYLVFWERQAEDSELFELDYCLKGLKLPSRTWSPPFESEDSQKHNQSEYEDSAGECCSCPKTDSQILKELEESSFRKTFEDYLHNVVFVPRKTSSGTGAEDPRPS
Sequence of Insulin receptor (P06213 763-1382 limits assumed): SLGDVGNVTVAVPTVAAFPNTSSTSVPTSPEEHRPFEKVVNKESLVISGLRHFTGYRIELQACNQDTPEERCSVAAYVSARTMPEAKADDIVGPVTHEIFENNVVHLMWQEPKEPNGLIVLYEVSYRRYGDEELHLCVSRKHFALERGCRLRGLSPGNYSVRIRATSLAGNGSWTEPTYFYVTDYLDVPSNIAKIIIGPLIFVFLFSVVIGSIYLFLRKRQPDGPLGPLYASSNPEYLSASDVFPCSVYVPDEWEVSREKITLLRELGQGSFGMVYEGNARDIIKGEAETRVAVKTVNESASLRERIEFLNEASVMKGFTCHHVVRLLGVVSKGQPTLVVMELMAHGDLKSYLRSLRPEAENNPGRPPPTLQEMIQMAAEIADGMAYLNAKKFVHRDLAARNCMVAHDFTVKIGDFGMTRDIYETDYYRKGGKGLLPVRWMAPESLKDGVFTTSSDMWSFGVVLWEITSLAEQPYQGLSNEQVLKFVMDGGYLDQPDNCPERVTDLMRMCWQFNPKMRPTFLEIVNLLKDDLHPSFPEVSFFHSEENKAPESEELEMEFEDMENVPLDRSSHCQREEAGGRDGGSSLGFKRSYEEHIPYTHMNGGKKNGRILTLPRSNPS
The target of a further data set is Cytochrome P450 3A4 (Homo sapiens, UniProt P08684). The data set can be described thus: Inhibition of CYP3A4. Format: ADME.
Sequence of Cytochrome P450 3A4 (P08684 whole entry): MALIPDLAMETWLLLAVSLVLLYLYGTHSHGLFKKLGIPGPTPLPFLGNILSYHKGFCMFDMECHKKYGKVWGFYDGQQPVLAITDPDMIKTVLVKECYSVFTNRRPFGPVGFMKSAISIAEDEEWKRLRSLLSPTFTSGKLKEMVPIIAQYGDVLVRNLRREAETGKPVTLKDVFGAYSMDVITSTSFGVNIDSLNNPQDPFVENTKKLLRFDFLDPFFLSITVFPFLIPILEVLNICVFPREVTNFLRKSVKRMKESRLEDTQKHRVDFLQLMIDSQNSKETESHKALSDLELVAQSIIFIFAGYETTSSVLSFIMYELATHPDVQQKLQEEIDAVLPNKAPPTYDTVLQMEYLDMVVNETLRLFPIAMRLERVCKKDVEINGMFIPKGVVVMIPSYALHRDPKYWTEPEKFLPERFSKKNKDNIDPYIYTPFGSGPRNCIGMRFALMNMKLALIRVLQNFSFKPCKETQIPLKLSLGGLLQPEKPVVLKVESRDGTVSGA
Data set [1] deals with T1, Tyrosine-protein kinase Tec (Homo sapiens, UniProt P42680).
T1 sequence (P42680 whole entry): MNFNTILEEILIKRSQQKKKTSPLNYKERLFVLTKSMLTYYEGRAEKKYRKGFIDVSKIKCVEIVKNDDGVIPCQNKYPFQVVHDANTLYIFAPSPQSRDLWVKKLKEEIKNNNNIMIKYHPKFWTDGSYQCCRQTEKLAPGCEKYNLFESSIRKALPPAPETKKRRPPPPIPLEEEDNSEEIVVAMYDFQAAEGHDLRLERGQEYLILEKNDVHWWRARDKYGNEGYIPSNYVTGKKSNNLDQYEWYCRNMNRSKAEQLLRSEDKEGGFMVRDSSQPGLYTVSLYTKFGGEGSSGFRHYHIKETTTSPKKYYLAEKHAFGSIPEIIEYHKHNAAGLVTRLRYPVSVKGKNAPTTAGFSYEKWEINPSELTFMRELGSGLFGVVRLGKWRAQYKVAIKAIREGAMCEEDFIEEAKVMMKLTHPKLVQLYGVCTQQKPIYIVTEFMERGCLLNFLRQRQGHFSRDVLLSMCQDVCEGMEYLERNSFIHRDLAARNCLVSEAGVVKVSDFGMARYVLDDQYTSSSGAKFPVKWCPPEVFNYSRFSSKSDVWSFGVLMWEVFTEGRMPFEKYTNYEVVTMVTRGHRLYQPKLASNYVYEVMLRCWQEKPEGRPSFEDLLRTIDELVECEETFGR
Briefly: Inhibition of Tec kinase.

The test system of a further data set is Jurkat. The data set can be described thus: Cytotoxicity against human JURKAT cells. The following applies: read-out: TC50 (the source's name). Format: functional.
Data set [2] addresses Tyrosine-protein kinase Lyn (Homo sapiens, UniProt P07948). Briefly: Inhibition of Lyn.
The target in data set [3] is T2, Tyrosine-protein kinase TXK (Homo sapiens, UniProt P42681).
T2 sequence (P42681 whole entry): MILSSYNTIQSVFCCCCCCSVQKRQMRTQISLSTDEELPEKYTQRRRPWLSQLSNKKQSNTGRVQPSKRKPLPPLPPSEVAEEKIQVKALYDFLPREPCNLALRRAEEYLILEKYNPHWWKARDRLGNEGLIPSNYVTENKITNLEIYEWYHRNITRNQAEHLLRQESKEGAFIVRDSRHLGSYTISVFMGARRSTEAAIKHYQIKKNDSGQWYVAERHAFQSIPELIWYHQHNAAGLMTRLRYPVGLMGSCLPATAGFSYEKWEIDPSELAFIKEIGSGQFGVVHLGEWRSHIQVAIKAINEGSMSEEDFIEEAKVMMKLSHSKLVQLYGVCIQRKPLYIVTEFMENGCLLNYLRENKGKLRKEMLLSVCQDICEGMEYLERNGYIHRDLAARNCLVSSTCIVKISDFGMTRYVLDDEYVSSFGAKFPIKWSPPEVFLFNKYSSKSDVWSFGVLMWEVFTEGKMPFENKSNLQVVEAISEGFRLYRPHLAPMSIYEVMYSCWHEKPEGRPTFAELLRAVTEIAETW
The data set can be described thus: Inhibition of TXK.

The target of a further data set is Cytochrome P450 2C9 (Homo sapiens, UniProt P11712). The data set can be described thus: Inhibition of CYP2C9. Type of data set: ADME.
Sequence of Cytochrome P450 2C9 (P11712 whole entry): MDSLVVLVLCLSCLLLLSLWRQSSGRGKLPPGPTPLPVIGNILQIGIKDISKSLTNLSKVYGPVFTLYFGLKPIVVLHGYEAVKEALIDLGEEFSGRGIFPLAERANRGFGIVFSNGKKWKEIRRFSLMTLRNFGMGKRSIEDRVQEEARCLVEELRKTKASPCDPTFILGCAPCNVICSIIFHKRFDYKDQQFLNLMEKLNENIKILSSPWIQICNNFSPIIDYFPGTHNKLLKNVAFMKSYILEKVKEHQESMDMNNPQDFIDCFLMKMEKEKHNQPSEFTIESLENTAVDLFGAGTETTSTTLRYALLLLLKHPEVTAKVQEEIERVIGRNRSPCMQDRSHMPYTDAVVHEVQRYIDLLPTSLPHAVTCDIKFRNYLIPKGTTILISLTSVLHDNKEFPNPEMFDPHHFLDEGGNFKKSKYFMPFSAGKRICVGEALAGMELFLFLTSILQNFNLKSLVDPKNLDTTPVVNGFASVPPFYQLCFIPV
Another data set deals with Mus musculus. The data set can be described thus: Inhibition of anti-CD3-induced IL2 production in sc dosed mouse. Format: functional, organism-based.
Data set [4] addresses T3, Tyrosine-protein kinase ITK/TSK (Homo sapiens, UniProt Q08881).
T3 sequence (Q08881 whole entry): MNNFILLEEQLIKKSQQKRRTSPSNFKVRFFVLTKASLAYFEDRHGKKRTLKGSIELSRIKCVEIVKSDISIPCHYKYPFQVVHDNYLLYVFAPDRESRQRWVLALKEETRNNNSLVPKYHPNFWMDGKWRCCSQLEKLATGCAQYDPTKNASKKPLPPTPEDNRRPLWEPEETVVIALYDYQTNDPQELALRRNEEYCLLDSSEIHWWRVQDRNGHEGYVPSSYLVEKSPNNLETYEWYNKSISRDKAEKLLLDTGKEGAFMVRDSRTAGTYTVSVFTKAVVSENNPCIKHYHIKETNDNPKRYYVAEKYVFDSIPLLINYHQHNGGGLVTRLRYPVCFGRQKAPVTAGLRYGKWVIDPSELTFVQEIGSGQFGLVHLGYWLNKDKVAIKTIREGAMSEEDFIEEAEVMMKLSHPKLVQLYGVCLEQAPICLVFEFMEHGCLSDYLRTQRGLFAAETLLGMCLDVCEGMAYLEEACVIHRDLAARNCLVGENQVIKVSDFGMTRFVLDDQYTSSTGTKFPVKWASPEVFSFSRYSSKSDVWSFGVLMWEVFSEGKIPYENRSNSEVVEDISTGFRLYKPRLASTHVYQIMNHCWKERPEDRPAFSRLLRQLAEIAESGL
Briefly: Inhibition of recombinant ITK by DELFIA assay.

Sequence of Tyrosine-protein kinase Lyn (P07948 whole entry): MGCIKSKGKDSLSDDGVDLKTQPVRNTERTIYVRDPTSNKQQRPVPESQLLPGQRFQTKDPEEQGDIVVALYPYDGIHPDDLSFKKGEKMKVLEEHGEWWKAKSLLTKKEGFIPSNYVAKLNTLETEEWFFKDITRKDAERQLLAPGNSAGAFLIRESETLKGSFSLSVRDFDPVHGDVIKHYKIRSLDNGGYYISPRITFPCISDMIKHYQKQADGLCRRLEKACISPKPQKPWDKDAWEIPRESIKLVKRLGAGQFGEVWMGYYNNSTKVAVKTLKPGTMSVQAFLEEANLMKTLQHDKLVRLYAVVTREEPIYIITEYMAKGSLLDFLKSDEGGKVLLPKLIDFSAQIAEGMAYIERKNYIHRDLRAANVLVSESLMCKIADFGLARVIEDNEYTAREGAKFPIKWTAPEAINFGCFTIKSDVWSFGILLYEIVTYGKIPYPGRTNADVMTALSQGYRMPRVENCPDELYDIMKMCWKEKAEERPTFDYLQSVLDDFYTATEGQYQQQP

On to `CN(C(=O)c1ccccc1)c1ccc2c(c1)nc(NC(=O)c1ccno1)n2CCC(N)=O`, for which, at Insulin receptor, the IC50 is more than 10 µM.
On the same count and under the same terms, with `Cc1cc(C(=O)Nc2nc3cc(N(C)C(=O)c4ccccc4)ccc3n2CCC(N)=O)ccc1C#N` the figure was more than 10 µM.
`CN(C(=O)c1ccccc1)c1ccc2c(c1)nc(NC(=O)c1ccc(C#N)cc1)n2CCC(N)=O`: the Activity at Cytochrome P450 3A4 and at Cytochrome P450 2C9 was more than 30 µM throughout. The IC50 is more than 10 µM in data set [1], more than 10 µM in data set [2], 0.56 µM in data set [3] and more than 10 µM against Insulin receptor. Moreover, the CC50 with Jurkat was more than 10 µM.
For the molecule `CC(=O)N1CCN(C(=O)c2cc(CSc3cnc(NC(=O)c4ccc(CNC(C)C(C)(C)C)cc4)s3)cc(C)c2C)CC1` (configuration not stated), the Activity entry with Mus musculus is “Dose-dependent effect”.
As to `CN(C(=O)c1ccccc1)c1ccc2c(c1)nc(NC(=O)c1ccc(C#N)nc1)n2CCC(N)=O`, the half-maximal inhibitory concentration (IC50) against Insulin receptor was more than 10 µM.
In the case of `CN(C(=O)c1ccccc1)c1ccc2c(c1)nc(NC(=O)c1ccc(Cl)cc1)n2CCC(N)=O`, the Activity at Cytochrome P450 3A4 and at Cytochrome P450 2C9 was more than 30 µM throughout. In addition, the IC50 in [1] is more than 10 µM; in [2], more than 10 µM; in data set [3] it was 0.5 µM. Moreover, in the data set on Jurkat, the CC50 was found to be 5.8 µM.
Regarding `CCN(C(=O)c1ccccc1)c1ccc2c(c1)nc(NC(=O)c1ccc(C#N)cc1)n2CCC(N)=O`, the Activity at Cytochrome P450 3A4 and on Cytochrome P450 2C9 was more than 30 µM throughout. The IC50 is more than 10 µM in data set [1], more than 10 µM in data set [2], 0.31 µM in data set [3] and more than 10 µM against Insulin receptor. Besides, the CC50 with Jurkat was more than 10 µM.
In the case of `CCN(C(=O)c1ccccc1)c1ccc2c(c1)nc(NC(=O)c1ccno1)n2CCC(N)=O`, in [4], the concentration for half-maximal inhibition (IC50) turned out to be 0.027 µM.
`CN(C(=O)c1ccccc1)c1ccc2c(c1)nc(NC(=O)c1ccoc1)n2CCC(N)=O`: the IC50 in [4] worked out at 0.01 µM; against Insulin receptor, 0.32 µM.
